Source: publication PMC10647736, “Aza Analogs of the TRPML1 Inhibitor Estradiol Methyl Ether (EDME)” (Molecules, 2023)
Entries after “also recorded” stand apart in the source; their conditions may differ. Read-outs that look alike come from different tables or passages of the source.

Assays:
[1] = biological target: T1, hTRPML1ΔNC-YFP, a plasma membrane variant of wild-type TRPML1 (Homo sapiens, UniProt Q9GZU1); set-up: method as in PMID 33859333; settings: previous work, cited from earlier work; for IC50: hTRPML1ΔNC-YFP, read-out: IC50 TRPML1 inhibition
[2] = set-up: method as in PMID 33859333; settings: compared to EDME; cited from earlier work
[3] = biological target: T1, hTRPML1ΔNC-YFP, a plasma membrane variant of wild-type TRPML1; assay: TRPML1 inhibition, fluorimetric Ca2+ influx assay (Fluo-4/AM) on HEK293 cells stably expressing plasma membrane-targeted TRPML1; assay type: cell-based; settings: for IC50 / TRPML1-inhibitory activity (in words): hTRPML1ΔNC-YFP; for IC50: HEK293 cells, Ca2+ influx, Fluo-4/AM; for TRPML1-inhibitory activity (in words): Ca2+ influx assay
From the text: The two target compounds, pyridine analog 1 and pyrimidine analog 2, as well as the inadvertently obtained pyridone analog 6 were submitted to our previously described test for inhibition of TRPML1 on hTRPML1ΔNC-YFP, a plasma membrane variant of wild-type TRPML1 by means of a fluorimetric Ca^2+ influx assay.
hTRPML1ΔNC-YFP, a plasma membrane variant of wild-type TRPML1, was obtained from HEK293 cells stably expressing plasma membrane-targeted TRPML1 by trypsination and after resuspending in HEPES buffered solution. IC50 values for TRPML1 inhibition were determined on a fluorescence imaging plate reader built into a robotic liquid handling station (Freedom Evo 150, Tecan, Mannedorf, Switzerland) using the calcium dye Fluo-4/AM (Invitrogen, Thermo Fisher Scientific, Waltham, MA, USA) according to the test procedure described in our previous work in the section Compound screening and generation of concentration–response curves.

T1 sequence (Q9GZU1 whole entry, stated change not applied): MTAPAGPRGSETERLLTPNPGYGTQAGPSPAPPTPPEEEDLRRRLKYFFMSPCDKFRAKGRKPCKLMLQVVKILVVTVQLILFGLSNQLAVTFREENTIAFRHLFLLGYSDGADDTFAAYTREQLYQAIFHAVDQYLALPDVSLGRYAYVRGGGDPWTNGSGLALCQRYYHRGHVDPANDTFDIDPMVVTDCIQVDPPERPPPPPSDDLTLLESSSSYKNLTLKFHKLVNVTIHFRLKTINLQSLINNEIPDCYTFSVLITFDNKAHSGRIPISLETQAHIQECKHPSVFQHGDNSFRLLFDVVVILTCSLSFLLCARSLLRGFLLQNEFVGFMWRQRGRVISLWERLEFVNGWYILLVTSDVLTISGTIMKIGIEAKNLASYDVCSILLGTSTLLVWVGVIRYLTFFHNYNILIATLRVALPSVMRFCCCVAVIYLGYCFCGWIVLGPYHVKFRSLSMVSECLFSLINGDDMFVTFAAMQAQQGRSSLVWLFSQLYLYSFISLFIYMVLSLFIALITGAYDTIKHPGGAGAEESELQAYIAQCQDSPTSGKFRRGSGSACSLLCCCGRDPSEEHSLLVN

For `C=Cc1ccc2c(c1)CC[C@@H]1[C@@H]2CC[C@]2(C)[C@@H](O)CC[C@@H]12` [PRU-10], the IC50 [1] is given as 410 nM and the “estrogenic activity (in words)” value [2] is given as “reduced estrogenic activity”.

For `COc1ccc2c(n1)CC[C@@H]1[C@@H]2CC[C@]2(C)[C@@H](O)CC[C@@H]12` [Compound 1, (4bS,6aS,7S,9aS,9bR)-2-Methoxy-6a-methyl-4b,6,6a,7,8,9,9a,9b,10,11-decahydro-5H-indeno[5,4-f]quinolin-7-ol], the “TRPML1-inhibitory activity, factor less potent than EDME” value ([3]; compared to EDME) was under 2, the IC50 [3] was 1000 nM and the melting point was 157 °C.

With `COc1ncc2c(n1)CC[C@@H]1[C@@H]2CC[C@]2(C)[C@@H](O)CC[C@@H]12` [Compound 2, (4bS,6aS,7S,9aS,9bR)-2-Methoxy-6a-methyl-4b,6,6a,7,8,9,9a,9b,10,11-decahydro-5H-indeno[5,4-f]quinazolin-7-ol] the “TRPML1-inhibitory activity (in words)” value [3] was “only a very weak inhibitor; also recorded: significantly lost inhibitory potency” and the IC50 [3] was 8800 nM.

In the case of `C#C[C@]1(O)CC[C@H]2[C@@H]3CCc4cc(OC)ccc4[C@H]3CC[C@@]21C` [mestranol], the “TRPML1 inhibition (in words)” value [1] is given as “considerable activity”.

With `C[C@]12CC[C@@H]3c4ccc(=O)[nH]c4CC[C@H]3[C@@H]1CC[C@@H]2O` [Compound 6, (4bS,6aS,7S,9aS,9bR)-7-hydroxy-6a-methyl-1,4b,5,6,6a,7,8,9,9a,9b,10,11-dodecahydro-2H-indeno[5,4-f]quinolin-2-one] the “TRPML1-inhibitory activity (in words)” value [3] was “virtually inactive”, the “TRPML1-inhibitory activity (in words)” value ([3]; listed as pyridone analog) was “completely inactive” and the IC50 [3] was 40000 nM.

In the case of `C[C@]12CC[C@@H]3c4ccc(O)cc4CC[C@H]3[C@@H]1CC[C@@H]2O` [17β-estradiol], the IC50 [1] is listed as 5300 nM.

For `COc1ccc2c(c1)CC[C@@H]1[C@@H]2CC[C@]2(C)[C@@H](O)CC[C@@H]12` [EDME, estradiol methyl ether], the IC50 [1] is given as 600 nM and the IC50 [3] is given as 600 nM.

For `CC(=O)c1ccc2c(c1)CC[C@@H]1[C@@H]2CC[C@]2(C)[C@@H](O)CC[C@@H]12` [PRU-12], the IC50 [1] is given as 280 nM and the “estrogenic activity (in words)” value [2] is given as “reduced estrogenic activity”.
